According to patent publication US7618816B2, “Metal-binding therapeutic peptides” (Ontherix, Inc., priority 2005, dated 2009):
Where no end group is shown, it is not given here.

What was measured:
435 = test: Uptake of SA-HRP::MBD peptide complexes; type: cell-based
Experimental: (§1) HEK293 kidney cell line and 54 tumor cell lines obtained from the National Cancer Institute and passaged in RPMI1640 cell culture medium supplemented with 10% fetal bovine serum and 10 uM FeCl2. Uptake of streptavidin-horseradish peroxidase (SA-HRP) conjugate and of various SA-HRP::MBD peptide complexes was determined as described (Singh et al. J Biol Chem. 279 (1):477-87 [2004]) using biotinylated MBD9 ([…]) (SEQ ID NO: 10) and MBD21 ([…]) (SEQ ID NO: 4) peptides and SA-HRP. Nuclear and cytoplasmic localization of these proteins was also determined in each case. […] In order to establish the underlying molecular mechanism for this variability, we cross-linked MBD21 peptide to the following cell surface markers at 4 degrees Celsius as previously described (Singh et al. J Biol Chem. 279 (1):477-87 [2004]): transferrin receptor 1, caveolin 1, PCNA, integrins alpha v, 2, 5 and 6, integrins beta 1, 3 and 5. […] Based on the strength of these correlations, it was possible to derive crude predictive formulae for MBD-mediated uptake based on the rate of cross-linking to surface markers. Such predictive formulas could form the basis for a diagnostic procedure to select appropriate targets for MBD-based therapies.

CCRF-SB = test: Uptake of SA-HRP::MBD peptide complexes; type: cell-based
Experimental: as §1

COLON 26 = test: Uptake of SA-HRP::MBD peptide complexes; type: cell-based
Experimental: as §1

HEK 293 = test: Uptake of SA-HRP::MBD peptide complexes; type: cell-based
Experimental: as §1

K562 = test: Uptake of SA-HRP::MBD peptide complexes; type: cell-based
Experimental: as §1

PAN 02 = test: Uptake of SA-HRP::MBD peptide complexes; type: cell-based
Experimental: as §1

SR = test: Uptake of SA-HRP::MBD peptide complexes; type: cell-based
Experimental: as §1

231 = test: Uptake of SA-HRP::MBD peptide complexes; type: cell-based, human
Experimental: as §1

786-O = test: Uptake of SA-HRP::MBD peptide complexes; type: cell-based, human
Experimental: as §1

A549 = test: Uptake of SA-HRP::MBD peptide complexes; type: cell-based, human
Experimental: as §1

A704 = test: Uptake of SA-HRP::MBD peptide complexes; type: cell-based, human
Experimental: as §1

ACHN = test: Uptake of SA-HRP::MBD peptide complexes; type: cell-based, human
Experimental: as §1

CCRF-CEM = test: Uptake of SA-HRP::MBD peptide complexes; type: cell-based, human
Experimental: as §1

CHA-59 = test: Uptake of SA-HRP::MBD peptide complexes; type: cell-based, human
Experimental: as §1

COLO 205 = test: Uptake of SA-HRP::MBD peptide complexes; type: cell-based, human
Experimental: as §1

DU-145 = test: Uptake of SA-HRP::MBD peptide complexes; type: cell-based, human
Experimental: as §1

EKVX = test: Uptake of SA-HRP::MBD peptide complexes; type: cell-based, human
Experimental: as §1

HCT-15 = test: Uptake of SA-HRP::MBD peptide complexes; type: cell-based, human
Experimental: as §1

HOP 62 = test: Uptake of SA-HRP::MBD peptide complexes; type: cell-based, human
Experimental: as §1

HOP 92 = test: Uptake of SA-HRP::MBD peptide complexes; type: cell-based, human
Experimental: as §1

HS 913T = test: Uptake of SA-HRP::MBD peptide complexes; type: cell-based, human
Experimental: as §1

HS-578T = test: Uptake of SA-HRP::MBD peptide complexes; type: cell-based, human
Experimental: as §1

IGR-OV1 = test: Uptake of SA-HRP::MBD peptide complexes; type: cell-based, human
Experimental: as §1

Lewis Lung = test: Uptake of SA-HRP::MBD peptide complexes; type: cell-based, human
Experimental: as §1

MOLT4 = test: Uptake of SA-HRP::MBD peptide complexes; type: cell-based, human
Experimental: as §1

MX-1 = test: Uptake of SA-HRP::MBD peptide complexes; type: cell-based, human
Experimental: as §1

NHI-H322M = test: Uptake of SA-HRP::MBD peptide complexes; type: cell-based, human
Experimental: as §1

OVCAR-5 = test: Uptake of SA-HRP::MBD peptide complexes; type: cell-based, human
Experimental: as §1

RPMI 8226 = test: Uptake of SA-HRP::MBD peptide complexes; type: cell-based, human
Experimental: as §1

SHP-77 = test: Uptake of SA-HRP::MBD peptide complexes; type: cell-based, human
Experimental: as §1

SN12C = test: Uptake of SA-HRP::MBD peptide complexes; type: cell-based, human
Experimental: as §1

WIDR = test: Uptake of SA-HRP::MBD peptide complexes; type: cell-based, human
Experimental: as §1

54 tumor cell lines = test: Uptake of SA-HRP::MBD peptide complexes, median of the survey; type: cell-based; settings: median over tumor cell lines
Experimental: as §1

KKGFYKKKQCRPSKGRKRGFCWAVDKYG (cysteine pairing not given here; also: biotinylated (position not given here), complexed with SA-HRP) [MBD21]
SA-HRP uptake, Cyt. (435; 435, cytoplasmic): 6.1 ng
SA-HRP uptake, Nuc. (435; 435, nuclear): 1.3 ng
SA-HRP uptake, Cyt. (CCRF-SB; cytoplasmic): 1.7 ng
SA-HRP uptake, Nuc. (CCRF-SB; nuclear): 0.1 ng
SA-HRP uptake, Cyt. (COLON 26; COLON 26, cytoplasmic): 8.9 ng
SA-HRP uptake, Nuc. (COLON 26; COLON 26, nuclear): 2.2 ng
SA-HRP uptake, Cyt. (HEK 293; HEK 293, cytoplasmic): 13.6 ng
SA-HRP uptake, Nuc. (HEK 293; HEK 293, nuclear): 4.5 ng
SA-HRP uptake, Cyt. (K562; K562, cytoplasmic): 2.8 ng
SA-HRP uptake, Nuc. (K562; K562, nuclear): 1.1 ng
SA-HRP uptake, Cyt. (PAN 02; PAN 02, cytoplasmic): 9.3 ng
SA-HRP uptake, Nuc. (PAN 02; PAN 02, nuclear): 2.2 ng
SA-HRP uptake, Cyt. (SR; cytoplasmic): 20.9 ng
SA-HRP uptake, Nuc. (SR; nuclear): 0.0 ng
SA-HRP uptake, Cyt. (231; 231, cytoplasmic): 3.4 ng
SA-HRP uptake, Nuc. (231; 231, nuclear): 1.1 ng
SA-HRP uptake, Cyt. (786-O; cytoplasmic): 1.8 ng
SA-HRP uptake, Nuc. (786-O; nuclear): 4.8 ng
SA-HRP uptake, Cyt. (A549; A549, cytoplasmic): 4.4 ng
SA-HRP uptake, Nuc. (A549; A549, nuclear): 1.3 ng
SA-HRP uptake, Cyt. (A704; A704, cytoplasmic): 4.5 ng
SA-HRP uptake, Nuc. (A704; A704, nuclear): 1.2 ng
SA-HRP uptake, Cyt. (ACHN; cytoplasmic): 8.0 ng
SA-HRP uptake, Nuc. (ACHN; nuclear): 3.1 ng
SA-HRP uptake, Cyt. (CCRF-CEM; cytoplasmic): 41.3 ng
SA-HRP uptake, Nuc. (CCRF-CEM; nuclear): 2.0 ng
SA-HRP uptake, Cyt. (CHA-59; CHA-59, cytoplasmic): 8.2 ng
SA-HRP uptake, Nuc. (CHA-59; CHA-59, nuclear): 2.1 ng
SA-HRP uptake, Cyt. (COLO 205; COLO 205, cytoplasmic): 2.1 ng
SA-HRP uptake, Nuc. (COLO 205; COLO 205, nuclear): 0.9 ng
SA-HRP uptake, Cyt. (DU-145; DU-145, cytoplasmic): 25.7 ng
SA-HRP uptake, Nuc. (DU-145; DU-145, nuclear): 3.3 ng
SA-HRP uptake, Cyt. (EKVX; cytoplasmic): 7.7 ng
SA-HRP uptake, Nuc. (EKVX; nuclear): 7.3 ng
SA-HRP uptake, Cyt. (HCT-15; HCT-15, cytoplasmic): 2.7 ng
SA-HRP uptake, Nuc. (HCT-15; HCT-15, nuclear): 0.7 ng
SA-HRP uptake, Cyt. (HOP 62; HOP 62, cytoplasmic): 4.1 ng
SA-HRP uptake, Nuc. (HOP 62; HOP 62, nuclear): 0.2 ng
SA-HRP uptake, Cyt. (HOP 92; HOP 92, cytoplasmic): 1.5 ng
SA-HRP uptake, Nuc. (HOP 92; HOP 92, nuclear): 1.6 ng
SA-HRP uptake, Cyt. (HS 913T; cytoplasmic): 2.1 ng
SA-HRP uptake, Nuc. (HS 913T; nuclear): 1.8 ng
SA-HRP uptake, Cyt. (HS-578T; cytoplasmic): 2.8 ng
SA-HRP uptake, Nuc. (HS-578T; nuclear): 2.3 ng
SA-HRP uptake, Cyt. (IGR-OV1; IGR-OV1, cytoplasmic): 1.9 ng
SA-HRP uptake, Nuc. (IGR-OV1; IGR-OV1, nuclear): 1.0 ng
SA-HRP uptake, Cyt. (Lewis Lung; cytoplasmic): 6.4 ng
SA-HRP uptake, Nuc. (Lewis Lung; nuclear): 3.4 ng
SA-HRP uptake, Cyt. (MOLT4; MOLT4, cytoplasmic): 7.3 ng
SA-HRP uptake, Nuc. (MOLT4; MOLT4, nuclear): 0.0 ng
SA-HRP uptake, Cyt. (MX-1; MX-1, cytoplasmic): 8.5 ng
SA-HRP uptake, Nuc. (MX-1; MX-1, nuclear): 3.8 ng
SA-HRP uptake, Cyt. (NHI-H322M; cytoplasmic): 6.0 ng
SA-HRP uptake, Nuc. (NHI-H322M; nuclear): 8.3 ng
SA-HRP uptake, Cyt. (OVCAR-5; OVCAR-5, cytoplasmic): 1.3 ng
SA-HRP uptake, Nuc. (OVCAR-5; OVCAR-5, nuclear): 1.5 ng
SA-HRP uptake, Cyt. (RPMI 8226; RPMI 8226, cytoplasmic): 3.6 ng
SA-HRP uptake, Nuc. (RPMI 8226; RPMI 8226, nuclear): 0.0 ng
SA-HRP uptake, Cyt. (SHP-77; SHP-77, cytoplasmic): 6.6 ng
SA-HRP uptake, Nuc. (SHP-77; SHP-77, nuclear): 2.7 ng
SA-HRP uptake, Cyt. (SN12C; cytoplasmic): 6.7 ng
SA-HRP uptake, Nuc. (SN12C; nuclear): 6.4 ng
SA-HRP uptake, Cyt. (WIDR; cytoplasmic): 2.8 ng
SA-HRP uptake, Nuc. (WIDR; nuclear): 1.0 ng
SA-HRP uptake, Cyt. (ng), Median (54 tumor cell lines; cytoplasmic): 2.8 ng
SA-HRP uptake, Nuc. (ng), Median (54 tumor cell lines; nuclear): 1.0 ng
